{
  "source": "PubChem BioAssay AID212",
  "about": "(DTP/NCI, 2004)",
  "system": "BDF1 mice, colon carcinoma 38 sc, T/C %",
  "assay": "NCI In Vivo Anticancer Drug Screen. Data for tumor model Colon Carcinoma 38 (subcutaneous) in B6D2F1 (BDF1) mice",
  "details": "endpoint: median tumor weight (est.), higher = larger tumour",
  "procedure,_shortened": "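Compound antitumor activity was assessed in mice carrying transplantable tumors. Survival or tumor size was recorded, and each value is the treated-group measurement divided by that of the vehicle-treated control group.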",
  "key": {"[1]": {"details": "dose: 12.5 mg/kg/injection, schedule: Q07DX002 (ip), vehicle: suspension in saline"}, "[2]": {"details": "dose: 25.0 mg/kg/injection, schedule: Q07DX002 (ip), vehicle: suspension in saline"}, "[3]": {"details": "dose: 50.0 mg/kg/injection, schedule: Q07DX002 (ip), vehicle: suspension in saline"}, "[4]": {"details": "dose: 100.0 mg/kg/injection, schedule: Q07DX002 (ip), vehicle: saline"}},
  "note": "Values joined by “and” are separate entries in the source; they are usually repeats but may differ in a detail not shown here. Identical values can stand only once. Results filed as inconclusive are left out.",
  "data": [
    {"smiles": "COc1cc2cc3cc4cc(OC)c(OC)cc4c(C)[n+]3cc2cc1OC", "note": "(tested in a mixture with another compound)", "values": [
      {"measurement": "T/C", "setting": "dose: 12.5 mg/kg/injection, schedule: Q07DX002 (ip), vehicle: saline", "value": "74 % of control and 94 % of control"},
      {"measurement": "T/C", "setting": "[1]", "value": "83 % of control"},
      {"measurement": "T/C", "setting": "[2]", "value": "85 % of control"},
      {"measurement": "T/C", "setting": "dose: 50.0 mg/kg/injection, schedule: Q07DX002 (ip), vehicle: saline", "value": "81 % of control and 100 % of control"},
      {"measurement": "T/C", "setting": "[3]", "value": "98 % of control"},
      {"measurement": "T/C", "setting": "[4]", "value": "82 % of control and 88 % of control"},
      {"measurement": "T/C", "setting": "dose: 100.0 mg/kg/injection, schedule: Q07DX002 (ip), vehicle: suspension in saline", "value": "116 % of control"},
      {"measurement": "T/C", "setting": "dose: 200.0 mg/kg/injection, schedule: Q07DX002 (ip), vehicle: saline", "value": "74 % of control"},
      {"measurement": "T/C", "setting": "dose: 200.0 mg/kg/injection, schedule: Q07DX002 (ip), vehicle: suspension in saline", "value": "50 % of control"},
      {"measurement": "T/C", "setting": "dose: 400.0 mg/kg/injection, schedule: Q07DX002 (ip), vehicle: suspension in saline", "value": "89 % of control"}
    ]},
    {"smiles": "CNC(=O)O/N=C(\\CN=[N+]=[N-])C(C)(C)C", "values": [
      {"measurement": "T/C", "setting": "dose: 1.0 mg/kg/injection, schedule: Q07DX002 (ip), vehicle: saline", "value": "103 % of control"}
    ]},
    {"smiles": "C1CCC2[N-]CC3CCCCC3[N-]CC3CCCCC3[N-]CC3CCCCC3[N-]CC2C1.[Cu]", "note": "(stereo unspecified)", "values": [
      {"measurement": "T/C", "setting": "dose: 1.56 mg/kg/injection, schedule: Q07DX002 (ip), vehicle: Klucel (hydroxypropylcellulose) (HPC)", "value": "93 % of control"},
      {"measurement": "T/C", "setting": "dose: 1.56 mg/kg/injection, schedule: Q07DX003 (ip), vehicle: Klucel (hydroxypropylcellulose) (HPC)", "value": "97 % of control"},
      {"measurement": "T/C", "setting": "dose: 3.13 mg/kg/injection, schedule: Q07DX002 (ip), vehicle: Klucel (hydroxypropylcellulose) (HPC)", "value": "81 % of control"},
      {"measurement": "T/C", "setting": "dose: 6.25 mg/kg/injection, schedule: Q07DX002 (ip), vehicle: Klucel (hydroxypropylcellulose) (HPC)", "value": "91 % of control"},
      {"measurement": "T/C", "setting": "dose: 6.25 mg/kg/injection, schedule: Q07DX003 (ip), vehicle: Klucel (hydroxypropylcellulose) (HPC)", "value": "100 % of control"},
      {"measurement": "T/C", "setting": "dose: 12.5 mg/kg/injection, schedule: Q07DX002 (ip), vehicle: Klucel (hydroxypropylcellulose) (HPC)", "value": "97 % of control"},
      {"measurement": "T/C", "setting": "dose: 12.5 mg/kg/injection, schedule: Q07DX003 (ip), vehicle: Klucel (hydroxypropylcellulose) (HPC)", "value": "95 % of control"}
    ]},
    {"smiles": "COc1c(O)c2c(c3cc(C(=O)N4CCc5c4c(O)c(OC)c4[nH]c(C(=O)N6CC7CC78C6=CC(=O)c6[nH]cc(C)c68)cc54)[nH]c13)CCN2C(N)=O", "note": "(stereo unspecified)", "values": [
      {"measurement": "T/C", "setting": "dose: 6.25 micrograms/kg/injection, schedule: Q07DX002 (ip), vehicle: DMSO", "value": "122 % of control"},
      {"measurement": "T/C", "setting": "dose: 25.0 micrograms/kg/injection, schedule: Q07DX002 (ip), vehicle: DMSO", "value": "109 % of control"},
      {"measurement": "T/C", "setting": "dose: 50.0 micrograms/kg/injection, schedule: Q07DX002 (ip), vehicle: DMSO", "value": "89 % of control"},
      {"measurement": "T/C", "setting": "dose: 67.0 micrograms/kg/injection, schedule: Q07DX002 (ip), vehicle: other", "value": "89 % of control"},
      {"measurement": "T/C", "setting": "dose: 100.0 micrograms/kg/injection, schedule: Q07DX002 (ip), vehicle: other", "value": "37 % of control"}
    ]},
    {"smiles": "CC(C)[C@](O)(C(=O)OCC1=CC[N+]2([O-])CC[C@@H](O)[C@@H]12)[C@H](C)O", "note": "(stereo partly specified)", "values": [
      {"measurement": "T/C", "setting": "dose: 50.0 mg/kg/injection, schedule: Q07DX003 (ip), vehicle: water", "value": "66 % of control"},
      {"measurement": "T/C", "setting": "dose: 100.0 mg/kg/injection, schedule: Q07DX003 (ip), vehicle: water", "value": "185 % of control"},
      {"measurement": "T/C", "setting": "dose: 200.0 mg/kg/injection, schedule: Q07DX002 (ip), vehicle: water", "value": "73 % of control"},
      {"measurement": "T/C", "setting": "dose: 200.0 mg/kg/injection, schedule: Q07DX003 (ip), vehicle: water", "value": "123 % of control"},
      {"measurement": "T/C", "setting": "dose: 400.0 mg/kg/injection, schedule: Q07DX002 (ip), vehicle: water", "value": "92 % of control"},
      {"measurement": "T/C", "setting": "dose: 400.0 mg/kg/injection, schedule: Q07DX003 (ip), vehicle: water", "value": "71 % of control"},
      {"measurement": "T/C", "setting": "dose: 800.0 mg/kg/injection, schedule: Q07DX002 (ip), vehicle: water", "value": "64 % of control"},
      {"measurement": "T/C", "setting": "dose: 800.0 mg/kg/injection, schedule: Q07DX003 (ip), vehicle: water", "value": "68 % of control"},
      {"measurement": "T/C", "setting": "dose: 1600.0 mg/kg/injection, schedule: Q07DX002 (ip), vehicle: water", "value": "48 % of control"}
    ]},
    {"smiles": "Cc1c2cc[n+](CCN3CCCCC3)cc2c(C)c2c1[nH]c1ccc(O)cc12", "values": [
      {"measurement": "T/C", "setting": "dose: 3.12 mg/kg/injection, schedule: Q07DX002 (ip), vehicle: saline", "value": "36 % of control"},
      {"measurement": "T/C", "setting": "dose: 3.12 mg/kg/injection, schedule: Q07DX002 (ip), vehicle: suspension in saline", "value": "100 % of control"},
      {"measurement": "T/C", "setting": "dose: 6.25 mg/kg/injection, schedule: Q07DX002 (ip), vehicle: saline", "value": "53 % of control and 61 % of control"},
      {"measurement": "T/C", "setting": "dose: 6.25 mg/kg/injection, schedule: Q07DX002 (ip), vehicle: suspension in saline", "value": "104 % of control"},
      {"measurement": "T/C", "setting": "[1]", "value": "86 % of control"},
      {"measurement": "T/C", "setting": "dose: 25.0 mg/kg/injection, schedule: Q07DX002 (ip), vehicle: saline", "value": "39 % of control and 64 % of control"},
      {"measurement": "T/C", "setting": "[2]", "value": "69 % of control"},
      {"measurement": "T/C", "setting": "[3]", "value": "39 % of control"},
      {"measurement": "T/C", "setting": "[4]", "value": "36 % of control and 47 % of control"}
    ]}
  ]
}
